# Measured values taken from publication PMC7867085, “In Vitro and In Vivo Antitumor Activity of Indolo[2,3-b] Quinolines, Natural Product Analogs from Neocryptolepine Alkaloid” (Molecules, 2021).
# How the values were obtained:
# [1] = DPPH free radical scavenging assay; settings: means ± SD (n = 3); amount needed to scavenge 50% of DPPH radicals
# Description: Over-production and the accumulation of free radicals inside the body leads to a phenomenon known as oxidative stress, which causes many serious diseases such as cancer, cardiovascular, and inflammation. Moreover, the harmful effects of this phenomenon can be reduced via using antioxidant compounds as free radical scavengers. Therefore, free radical scavenging capabilities were determined for all compounds by 2,2-diphenyl-1-picrylhydrazyl (DPPH) assay using ascorbic acid (AA) as standard for comparison. The DPPH reducing capabilities of the synthetic analogs 6a–d were evaluated by determining their IC50 values. […] The IC50 value corresponds to the concentration of a sample, which has the ability to scavenge 50% of the free radicals present in the reaction mixture. Low IC50 values indicate that the compound in the sample has high antioxidant activity. […] At the same time, the analog 6c with pyrimidine moiety had the lowest antioxidant activity (9.2 × 10^−5 µM). […]
# To 1 mL of various concentrations of ascorbic acid, neocryptolepine and indoloquinoline analogs prepared from methanol, 1 mL solution of DPPH, 0.1 mM was added. […] After 20 min incubation in the dark, absorbance was recorded at 517 nm. […] The percentage scavenging of the extract was calculated.
# [2] = test system: Ehrlich ascites carcinoma (EAC) cells; assay: In vitro cytotoxic activity, trypan blue dye exclusion; format: cell-based, mice; settings: Mus musculus, Ehrlich, 3 h incubation at 37 °C
# Description: The synthesized indoloquinoline analogs 6a–d were evaluated for their cytotoxic activity against Ehrlich ascites carcinoma (EAC), as depicted in Table 1. The EAC cells used in this study were supplied by National Cancer Institute, Cairo, Egypt. The cells were maintained in vivo in Swiss Albino female mice by intraperitoneal transplantation (0.2 mL of 2 × 10^6 cells/mL). EAC cells were aspirated from the peritoneal cavity of mice, washed with saline and given intraperitoneally to develop ascites tumor. Trypan blue dye exclusion technique was used to figure the viability percentage of EAC cells to assay the cytotoxic activity of the studied compounds. In brief, under completely sterile conditions, EAC cells were separated away from the mice abdomens. Hank’s balanced salt solution (HBSS) was used to wash the separated cells. Cells were put in a cooling centrifuge at 1500 rpm for 15 min; the produced granules were put back into suspension using HBSS, the mentioned steps were done in triplicate. Finally, a measured volume of RPMI 1640 was used to suspend the cells, followed by the addition of 10% fetal bovine serum, 10 µg/mL streptomycin and 100 U/mL penicillin. Consequently, the cell count was adjusted to 2 × 10^6 cells/mL from the prepared diluted cell suspension 0.2 mL was titrated in 96 flat-bottomed tissue culture plates. Serial concentrations of each tested compound were prepared and added in triplicate and incubated at 37 °C for 3 h in a 5% CO2 atmosphere. The IC50 parameter (half-maximum inhibitory concentration) was calculated using Trypan blue dye exclusion test, and then the cytotoxic effect was evaluated using control EAC cells. Thalidomide was used as a reference drug alongside the parent natural compound neocryptolepine I for comparison. Thalidomide was used as a reference drug because its mechanism of action is expected to be similar to the mechanism of action of neocryptolepine analogs as its anticancer action may be based on its antiangiogenic action, resulting from specific DNA intercalation as well as induce cell cycle arrest.
# The percentage of EAC cell death of the synthesized derivatives was evaluated by trypan blue exclusion assay. In addition, the compounds 6a–d, as well as the reference drug thalidomide and the parent natural compound neocryptolepine (I), were evaluated through eight concentration levels. It is worth noting that this cytotoxicity was dose-dependent when compared to the reference drug, thalidomide and the control, which was treated with the corresponding dilutions of DMSO.
# As a preparation step to perform cytotoxicity assay against the EAC cell line, thalidomide, parent neocryptolepine and the indoloquinoline compounds a 6a, 6b, 6c and 6d were dissolved in DMSO/saline (0.3:0.7) to prepare a solution of 10 mmol concentration. The stock solutions were stored at 4 °C and were used all over the assay. EAC cells were supplied by the National Cancer Institute, Cairo, Egypt. The cells were maintained in vivo in Swiss albino female mice by intraperitoneal transplantation (0.2 mL of 2 × 10^6 cells/mL). EAC cells were aspirated from the peritoneal cavity of mice, washed with saline, and given intraperitoneally to develop ascites tumor.
# Trypan blue dye exclusion technique was used to figure the viability percentage of EAC cells to assay the cytotoxic activity of the studied compounds. In brief, under completely sterile conditions, EAC cells were separated away from the mice’s abdomen. Hank’s balanced salt solution (HBSS) was used to wash the separated cells. The cells were put in a cooling centrifuge at 1500 rpm for 15 min; the produced granules were put back into suspension using HBSS, the mentioned steps were done in triplicate. Finally, a measured volume of RPMI 1640 was used to suspend the cells, followed by the addition of 10% fetal bovine serum, 10 µg/mL streptomycin and 100 U/mL penicillin and the cell count was adjusted to 2 × 10^6 cells/mL. […]
# EAC-induced solid tumor = assay: Antitumor activity: reduction in tumor volume of EAC-induced solid tumor; format: in vivo, Swiss female albino mice; settings: day 12 (last day of treatment), 100 mg/kg SC daily for five consecutive days
# Description: The aim of this study is to characterize indoloquinoline analogs 6a–d curative ability and antineoplastic activity on solid-form of Ehrlich tumors. Tumor volume is a potential biomarker for Ehrlich tumor development. The induction of solid tumor in Swiss female mice performed by inserting 0.2 mL of EAC cells (2 × 10^6 cell/mL) subcutaneously (SC) between thighs of the lower limb. When the tumor volume reached 15–20 mm^3 (Seven days after tumor induction), the mice were randomly divided into 6 groups (n = 10), five groups were injected subcutaneously with thalidomide and indoloquinoline analogs 6a–d (100 mg/kg) daily for five consecutive days, the sixth group (positive control group) were given DMSO/saline (0.3/0.7). The 8th day is considered the zero days of treatment. The tumor volume was daily measured with a vernier caliper for four days stated from day eight.
# Thalidomide and indoloquinoline derivatives 6a–d were tested for their antitumor effect; the test was done in vivo on mice-bearing solid tumors. The induction of solid tumor in Swiss female mice performed by inserting 0.2 mL of EAC cells (2 × 10^6 cell/mL) subcutaneously (SC) between thighs of the lower limb. Seven days after tumor induction, animals were divided into 6 groups (n = 10), five groups were injected subcutaneously with 100 mg/kg of tested compounds daily for 5 consecutive days, the sixth group (positive control group) were given 0.3 DMSO/0.7 H2O. On day twelve, after carrying out EAC cells, mice were sacrificed, dissected, and change in tumor mass was evaluated by measuring the developed tumor mass volume using the formula [45, 46]:Tumor volume (mm^3) = 0.52 × length × (width)^2.(1)
# [3] = test system: solid-tumor (EAC) bearing mice (liver homogenate); assay: Lipid peroxidation and antioxidant enzymes in liver homogenate of solid-tumor bearing mice; format: in vivo, Swiss female albino mice; settings: 100 mg/kg for 5 days, liver
# Description: Measuring antioxidant enzyme levels and lipid peroxidation was utilized to evaluate the pharmacological effect of indoloquinoline derivatives. The study group was divided into two subgroups, normal mice and tumor-bearing mice. Each subgroup is further subdivided into two groups, one group received indoloquinoline derivatives, and the other group was marked as a placebo group.
# After administration of indoloquinoline analogs 6a, 6b, 6c and 6d at a dose of 100 mg/kg for 5 constitutive days to mice with EAC, the levels of lipid peroxidation were highly significant less than that of the positive control group (p < 0.001). Meanwhile, the level of SOD in the liver homogenate of positive bearing mice was 32.1% (p < 0.001) less than that of the normal group (Table 5).
# The eradicated liver was double washed first, with ice-cold normal saline then, with cold 0.15 mol/L Tris-HCl buffer (pH 7.4). The clean organ was dried and weighed, and used to prepare a 10% w/v homogenate in 0.15 mol/L Tris-HCl buffer. A portion of the prepared homogenate was centrifuged at 1500 rpm for 15 min at 4 °C [47] and used for estimating lipid peroxidation, SOD [48] and CAT [49] analysis was carried out using the supernatant.
# MG-63 cells = test system: MG-63 cells; set-up: method as in PMID 18951804, PMID 2953123; settings: ref [34],[35]; cited from earlier work
IC50 [1],SMILES,IC50 [2],reduction percentage in tumor volume (EAC-induced solid tumor),CAT [3],Lipid Peroxidation [3],SOD [3],effect on cell cycle (MG-63 cells)
0.042 nM,"O=C1O[C@H]([C@@H](O)CO)C(O)=C1O [Ascorbic acid, ascorbic acid]",,,,,,
,"Cn1c2nc3ccccc3c-2cc2ccccc21 [Neocryptolepine, 5-methyl-5H-indolo[2,3-b] quinoline]",0.54 nM,,,,,
,"O=C1CCC(N2C(=O)c3ccccc3C2=O)C(=O)N1 (centres unmarked) [Thalidomide, reference compound]",0.26 nM,67.20%,5.8 ± 1.5 KU/mg Tissue/s,330.2 ± 8.1 nmol MDA/g Tissue,108.4 ± 10.2 U/g Tissue,induced cell cycle arrest by increasing the number of cells in the G0/G1 phase and decreasing the percentage of S phase
